“Also recorded” adds a separate entry of the source. Where two headings read alike, the source gives them in different places.
Key:
[1] = test system: C. elegans; type: in vivo, Caenorhabditis elegans; conditions: in vivo
Procedure, shortened: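 Survival under oxidative stress: 500 μM H2O2 (final) was added to day-4 adults kept in liquid with compounds, FUdR present, 4 wells per molecule and 0.2% DMSO controls, with daily scoring of viability.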

[2] = test system: FOXO3; experiment: qPCR analysis of FOXO3-regulated genes; type: cell-based, human; conditions: for Induction of at least two of five FOXO3-regulated genes (SOD2, GADD45A, CAT, DDB1, TXNIP): WI-38; for fold induction at 10 µM: Homo sapiens; for K = Sestrin induction: score
Procedure, shortened: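 FOXO3 target-gene expression quantified by qPCR normalised to B2M, PPIA and GAPDH, in WI-38 cells after 24 h exposure to 10 μM compound. Some runs used cells first transfected 36 h with 10 nM FOXO3 or NRF2 siRNA and replated ~24 h before dosing.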

[3] = test system: WI-38 cells; experiment: MMS resistance assay; type: cell-based, human; conditions: for fold induction at 10 µM: Homo sapiens, 12 h, normalized ATP measurement; for Assay 3: MMS-resistant / Assay 5: Triple resistant: YES/NO; for Assay 3: MMS-resistant: * indicates partial; for Assay 5: Triple resistant: H2O2, cadmium and MMS
Procedure, shortened: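 Resistance to CdCl2 or MMS stress (12 h exposure) was scored in WI-38 fibroblasts pretreated with compound at 0.25–20 μM final, five doses, technical triplicates. MMS plates had compound added 24 h before MMS, after a shift to serum-free DMEM+2% BSA. Significance came from a global variance t-test over two independent runs.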

[4] = 24 h, Assay 10(m), at 10 uM, qPCR, read-out: Induction of FOXO3-regulated genes: CAT normalized fold-change
[5] = 24 h, Assay 10(m), at 10 uM, qPCR, read-out: Induction of FOXO3-regulated genes: GADD45A normalized fold-change
[6] = 24 h, Assay 10(m), at 10 uM, qPCR, read-out: Induction of FOXO3-regulated genes: SESN1 normalized fold-change
[7] = 24 h, Assay 10(m), at 10 uM, qPCR, read-out: Induction of FOXO3-regulated genes: TXNIP normalized fold-change
[8] = 10 μM, 24 hrs, WI-38 cells, qPCR, normalized to B2M, n = 4, read-out: CAT expression, normalized fold change (FOXO3-regulated gene)
[9] = 10 μM, 24 hrs, WI-38 cells, qPCR, normalized to B2M, n = 4, read-out: GADD45A expression, normalized fold change (FOXO3-regulated gene)
[10] = 10 μM, 24 hrs, WI-38 cells, qPCR, normalized to B2M, n = 4, read-out: SESN1 expression, normalized fold change (FOXO3-regulated gene)
[11] = 10 μM, 24 hrs, WI-38 cells, qPCR, normalized to B2M, n = 4, read-out: TXNIP expression, normalized fold change (FOXO3-regulated gene)
[12] = WI-38 cells, 10 μM, 24 hrs, n=4, qPCR normalized by B2M, read-out: DDB1 Normalized fold change
[13] = WI-38 cells, 10 μM, 24 hrs, n=4, qPCR normalized by B2M, read-out: GADD45A Normalized fold change
[14] = WI-38 cells, 10 μM, 24 hrs, n=4, qPCR normalized by B2M, read-out: SESN1 Normalized fold change
[15] = fold change, qPCR, WI-38 cells, 10 μM, 24 hrs, read-out: Summary of effects on FOXO3-regulated genes: CAT
[16] = fold change, qPCR, WI-38 cells, 10 μM, 24 hrs, read-out: Summary of effects on FOXO3-regulated genes: GADD45A
[17] = fold change, qPCR, WI-38 cells, 10 μM, 24 hrs, read-out: Summary of effects on FOXO3-regulated genes: SESN1
[18] = fold change, qPCR, WI-38 cells, 10 μM, 24 hrs, read-out: Summary of effects on FOXO3-regulated genes: TXNIP
[19] = qPCR, WI-38 cells, 10 μM, n=4, 24 hrs, normalized by B2M, read-out: CAT Normalized fold change
[20] = qPCR, WI-38 cells, 10 μM, n=4, 24 hrs, normalized by B2M, read-out: SOD2 Normalized fold change
[21] = qPCR, WI-38 cells, 10 μM, n=4, 24 hrs, normalized by B2M, read-out: TXNIP Normalized fold change
[22] = Exp. 1, WI-38 cells, read-out: Exp. 1, under MMS stress treatment, at 10 uM (fold change)
[23] = Exp. 2, WI-38 cells, read-out: Exp. 2, under MMS stress treatment, at 10 uM (fold change)
[24] = score in summary of 38 core set hits
[25] = WI-38, 24 h, read-out: SESN1 expression

Structure (SMILES) | H2O2-resistance assay, 1st experiment [1] | L = H2O2-resistance in worms [1] | N = H2O2-resistance in woms [1] | E = Potential FOXO3 Activation ([2]; 2-point score) | fold induction at 10 µM [2, 6] | fold induction at 10 µM [2, 10] | fold induction at 10 µM [2, 12] | fold induction at 10 µM [2, 13] | fold induction at 10 µM [2, 14] | fold induction at 10 µM [2, 17] | fold induction at 10 µM [2, 19] | fold induction at 10 µM [2, 20] | fold induction at 10 µM [2, 21] | K = Sestrin induction [2] | E = Potential FOXO3 Activation ([2]; summary score) | fold induction at 10 µM [3, 22] | fold induction at 10 µM [3, 23] | B = MMS resistant [3, 24] | B = MMS resistant ([3]; summary score) | D = Triple resistant ([3]; summary score) | further results
CCCN1C/C(=C\c2ccc(F)cc2)C(=O)/C(=C/c2ccc(F)cc2)C1 [O15] | YES; | 1 | 1 | 0 | 0.8 | 0.8 | 1.17 | 2.71 | 0.679 | 0.8 | 1.28 | 1.05 | 0.219 | 0 | 0 | 0.16 | 0.38 | 0 | 0 | 0 | H2O2-resistance assay, 2nd experiment [1]: YES.; Protection of C. elegans from hydrogen peroxide [1]: protected worms from hydrogen peroxide; also recorded: protected C. elegans from hydrogen peroxide; also recorded: could protect C. elegans from hydrogen peroxide; Induction of at least two of five FOXO3-regulated genes (SOD2, GADD45A, CAT, DDB1, TXNIP) ([2]; 10 μM, 24 hrs): significant induction; also recorded: significant, induction; fold induction at 10 µM [2, 4]: 1.28; fold induction at 10 µM [2, 5]: 2.72; fold induction at 10 µM [2, 7]: 0.22; fold induction at 10 µM [2, 8]: 1.28; fold induction at 10 µM [2, 9]: 2.72; fold induction at 10 µM [2, 11]: 0.22; fold induction at 10 µM [2, 15]: 1.28; fold induction at 10 µM [2, 16]: 2.72; fold induction at 10 µM [2, 18]: 0.22
[O-][n+]1onc2c3nsnc3c(Br)cc21 [O17] | YES; | 1 | 1 | 0 |  |  | 1.04 | 0.846 | 1.11 |  | 1.11 | 0.997 | 0.801 | 0 | 0 | 0.86 | 5.33 | 0 | 0 | 0 | H2O2-resistance assay, 2nd experiment [1]: YES.; Protection of C. elegans from hydrogen peroxide [1]: could protect C. elegans from hydrogen peroxide; fold induction at 10 µM [2, 5]: 0.85; fold induction at 10 µM [2, 9]: 0.85; fold induction at 10 µM [2, 16]: 0.85
Cc1cc(C)c(C(=O)/C=C/c2ccccc2F)c(O)n1 [O18] |  | 0 | 0 | 0 |  |  | 1.33 | 0.861 | 1.06 |  | 1.47 | 1.04 | 0.297 | 0 | 0 | 1.11 | 1.48 | 0 | 1 | 2 | fold induction at 10 µM [2, 7]: 0.3; fold induction at 10 µM [2, 11]: 0.3; fold induction at 10 µM [2, 18]: 0.3; Assay 3: MMS-resistant [3]: YES; Assay 5: Triple resistant [3]: YES
COC(=O)CCc1sc2c(c1[N+](=O)[O-])NC(=O)CCC2 [O20] |  | 0 | 0 | 0 | 1.73 | 1.73 | 1.25 | 1.04 | 1.73 | 1.73 | 1.35 | 1.09 | 1.12 | 1 | 0 | 2.17 | 1.46 | 0 | 1 | 2 | Induction of at least two of five FOXO3-regulated genes (SOD2, GADD45A, CAT, DDB1, TXNIP) ([2]; 10 μM, 24 hrs): significant induction; also recorded: significant, induction; fold induction at 10 µM [2, 4]: 1.35; fold induction at 10 µM ([2]; 24 h, Assay 10(m), at 10 uM, qPCR, read-out: Induction of FOXO3-regulated genes: DDB1 normalized fold-change): 1.25; fold induction at 10 µM [2, 25]: > 1.5; fold induction at 10 µM [2, 8]: 1.35; fold induction at 10 µM ([2]; 10 μM, 24 hrs, WI-38 cells, qPCR, normalized to B2M, n = 4, read-out: DDB1 expression, normalized fold change (FOXO3-regulated gene)): 1.25; fold induction at 10 µM [2, 15]: 1.35; fold induction at 10 µM ([2]; fold change, qPCR, WI-38 cells, 10 μM, 24 hrs, read-out: Summary of effects on FOXO3-regulated genes: DDB1): 1.25; Assay 3: MMS-resistant [3]: YES; Assay 5: Triple resistant [3]: YES
COc1ccc(/C=C2\SC(=N)N(c3nccs3)C2=O)cc1 [O21] |  | 0 | 0 | 0 | 1.88 | 1.88 | 1.45 | 2.06 | 1.88 | 1.88 | 1.3 | 1.12 | 0.9 | 1 | 0 | 0.74 | 0.94 | 0 | 0 | 0 | fold induction at 10 µM [2, 25]: > 1.5

— patent publication US11413278B2, “Compounds and methods for promoting stress resistance” (priority 2015, dated 2022)
